# Results as given in article PMC8151276, “An Integrated Approach toward NanoBRET Tracers for Analysis of GPCR Ligand Engagement” (Molecules, 2021).
# Biological target: T1, HTR7 (Homo sapiens, UniProt P34969)
# T1 construct: purchased Promega (in-house HiBiT-GPCR construct library, NanoBRET)
# Assay: NanoBRET screen HiBiT-HTR7 in HEK293
# Format: binding
# Protocol: Each tracer candidate was screened across the entire library of HiBiT-GPCR constructs using NanoBRET as the detection modality. As depicted in Figure 4A, the specificity of interactions was evaluated through decrease in BRET due to competitive displacement of a bound tracer by excess parental compound. Each tracer was analyzed for binding to each HiBiT-GPCR fusion in the absence and in the presence of competing parental compound. Briefly, HEK293 cells were transfected with HiBiT-GPCR constructs diluted into promoterless DNA to reduce expression and maximize translocation to the cell surface. Each tracer candidate was then screened at concentrations of 1 μM and 0.1 μM across cells expressing these fusions. Cells were treated for 1.5 h with tracer either alone or in the presence of 20 μM competing parental compound (i.e., control). BRET was measured upon addition of purified LgBiT and subsequent complementation with HiBiT genetically fused to a GPCR. The specificity of interactions was assessed through a decrease in BRET signal due to competitive displacement of the bound tracer. To further gauge the robustness of these interactions, the fold response over the control (i.e., BRETtracer/BRETcontrol) was calculated. We chose a 1.5-fold response, which translates to ≥7-fold signal over noise as the minimal threshold required to score an interaction as positive.
# HiBiT-GPCR DNA constructs were diluted in 10 mM Tris pH 8 to a final concentration of 0.01 μg/μL, arrayed in 96-well plates and stored at −20 °C. For transfection, HEK293 cells were suspended in Opti-MEM (without phenol red) supplemented with 2% fetal bovine serum (Seradigm) and 100 units/mL penicillin–streptomycin (Gibco) at a final concentration of 220,000 cells/mL and dispensed into white 96-well plates at 90 μL/well. Subsequent transfections and screens were carried using an Agilent Bravo Automated Liquid Handling Platform. First, the 96-well HiBiT DNA arrays were diluted 25-fold in Opti-MEM (without serum or phenol red) to a final concentration of 0.0004 μg/μL and 20 μL of the diluted DNAs were transferred into new 96-well plates. Next, promoterless carrier DNA (1 μg/μL) was diluted 25-fold (0.04 μg/μL) and then dispensed into the diluted arrays at 20 μL/well. Following brief mixing, Viafect transfection reagent (Promega) diluted 16-fold into Opti-MEM was dispensed into the plates at 40 μL/well. After mixing by pipetting, plates were incubated for 10 min on the pipetting station deck. The DNA-transfection reagent complexes were then added to plates containing cells. To facilitate the screen, 10 μL of DNA-transfection reagent complexes were added in duplicates to the top 4 and bottom 4 rows, resulting in two identical 48-well arrays per plate. Plates with transfected cells were incubated for 18–20 h at 37 °C/5% CO2. A screen of each tracer across the entire library using two different concentrations requires duplicate plates of transfected cells. Depending on the number of tracers being screened, transfections can be scaled up using the same ratios. The next day, for each tracer, four 20× screening solutions in tracer dilution buffer (Promega) were prepared: two duplicates at final concentration of 20 μM and two duplicates at a final concentration of 2 μM. […] The four resulting solutions were diluted 4-fold in Opti-MEM without serum or phenol red to generate 5× solutions (5 µM and 0.5 µM tracer +/− 100 μM competing compound). To screen the library, a BioTek MultiFlo FX liquid dispenser was used to dispense 22.5 µL of tracer solution to the top 4 rows and 22.5 µL tracer + competing compound solution to the 4 bottom rows. Plates were briefly mixed on an orbital shaker and incubated for 1.5 h at room temperature. […] Plates were briefly mixed on an orbital shaker and incubated for 15 min to allow complementation.
# T1 sequence (P34969 whole entry): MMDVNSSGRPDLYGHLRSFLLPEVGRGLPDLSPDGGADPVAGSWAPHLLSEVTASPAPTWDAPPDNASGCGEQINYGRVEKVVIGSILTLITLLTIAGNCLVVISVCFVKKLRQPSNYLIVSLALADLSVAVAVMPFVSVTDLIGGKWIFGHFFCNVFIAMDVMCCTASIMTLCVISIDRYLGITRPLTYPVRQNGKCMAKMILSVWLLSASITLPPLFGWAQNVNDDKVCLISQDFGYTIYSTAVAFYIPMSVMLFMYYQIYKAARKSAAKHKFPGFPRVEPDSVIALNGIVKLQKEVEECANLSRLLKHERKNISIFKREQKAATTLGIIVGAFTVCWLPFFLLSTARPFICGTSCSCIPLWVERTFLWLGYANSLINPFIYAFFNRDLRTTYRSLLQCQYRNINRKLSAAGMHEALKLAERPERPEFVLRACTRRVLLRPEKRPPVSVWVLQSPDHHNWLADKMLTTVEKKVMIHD
Compound,"NanoBRET Fold Response (HTR7, tracer 0.1μM)","NanoBRET Fold Response (HTR7, tracer 1μM)",also measured
CN(C)CCC=C1c2ccccc2CCc2ccc(C(=O)NCCNC(=O)CCOCCOCCOCCOCCNC(=O)CCc3ccc4n3[B-](F)(F)[N+]3=C(c5ccc[nH]5)C=CC3=C4)cc21 [Amitriptyline-b-2-NB590],,,"NanoBRET Fold Response (tracer at 0.1μM, listed as amitriptyline-b-2-NB590): 0.94; NanoBRET Fold Response (tracer at 1μM, listed as amitriptyline-b-2-NB590): 0.94"
CCOC(=O)c1cc(C#N)c(N2CCC(C(=O)NS(=O)(=O)Cc3ccccc3/C=C/C(=O)NCCNC(=O)CCc3ccc4n3[B-](F)(F)[N+]3=C(c5ccc[nH]5)C=CC3=C4)CC2)nc1C [AZD1283-1-NB590],,,"NanoBRET Fold Response (HTR7, 0.1μM): 1.08; NanoBRET Fold Response (HTR7, 1μM): 1.09"
CC(C)N(CC[C@H](c1ccccc1)c1cc(CCNC(=O)CCOCCOCCOCCOCCNC(=O)CCc2ccc3n2[B-](F)(F)[N+]2=C(c4ccc[nH]4)C=CC2=C3)ccc1O)C(C)C [Tolterodine-2-NB590],1.06,1.07,
CC(C)N(CC[C@H](c1ccccc1)c1cc(CCNC(=O)c2ccc(CNC(=O)CCc3ccc4n3[B-](F)(F)[N+]3=C(c5ccc[nH]5)C=CC3=C4)cc2)ccc1O)C(C)C [Tolterodine-BZ-NB590],1.06,1.03,
O=C(CCOCCOCCOCCOCCNC(=O)CCc1ccc2n1[B-](F)(F)[N+]1=C(c3ccc[nH]3)C=CC1=C2)NCCCN1CCN(C2=Nc3ccccc3Oc3ccc(Cl)cc32)CC1 [Loxapine-a-2-NB590],1.07,1.30,
CN(C)CCC=C1c2ccccc2CCc2ccc(C(=O)NCCNC(=O)CCOCCOCCOCCOCCNC(=O)CCc3ccc4n3[B-](F)(F)[N+]3=C(c5ccc[nH]5)C=CC3=C4)cc21 [Amitriptyline-a-2-NB590],,,NanoBRET Fold Response (tracer at 0.1μM): 1.00; NanoBRET Fold Response (tracer at 1μM): 1.15
Cc1nc2n(c(=O)c1CCN1CCC(c3noc4cc(F)ccc34)CC1)CCCC2OC(=O)NCCOCCOCCOCCOCCNC(=O)CCc1ccc2n1[B-](F)(F)[N+]1=C(c3ccc[nH]3)C=CC1=C2 (centres unmarked) [Risperidone-2-NB590],1.06,1.19,
COc1ccc2[nH]c(-c3ccc(CNC(=O)CCOCCOCCOCCOCCNC(=O)CCc4ccc5n4[B-](F)(F)[N+]4=C(c6ccc[nH]6)C=CC4=C5)cc3)c(CCNC(C)=O)c2n1 [AzomelatoninICO9-2-NB590],,,NanoBRET Fold Response (0.1μM tracer): 0.96; NanoBRET Fold Response (1μM tracer): 1.02
COc1ccccc1N1CCN(CCCCN2C(=O)c3ccc(CNC(=O)CCOCCOCCOCCOCCNC(=O)CCc4ccc5n4[B-](F)(F)[N+]4=C(c6ccc[nH]6)C=CC4=C5)cc3C2=O)CC1 [NAN-190-2-NB590],,1.10,
O=C(CCc1ccc2n1[B-](F)(F)[N+]1=C(c3ccc[nH]3)C=CC1=C2)NCCOCCOCCNC(=O)OCCOCCN1CCN(C2=Nc3ccccc3Sc3ccccc32)CC1 [Quetiapine-a-2-NB590],1.01,1.15,
O=C(CCOCCOCCOCCOCCNC(=O)CCc1ccc2n1[B-](F)(F)[N+]1=C(c3ccc[nH]3)C=CC1=C2)NCCCN1CCN(C2=Nc3cc(Cl)ccc3Nc3ccccc32)CC1 [Clozapine-a-2-NB590],,,"NanoBRET Fold Response (HTR7, 0.1μM tracer): 1.22; NanoBRET Fold Response (HTR7, 1μM tracer): 1.08"
N#CN=C(NCCCOc1cccc(CN2CCCCC2)c1)NCCNC(=O)CCOCCOCCOCCOCCNC(=O)CCc1ccc2n1[B-](F)(F)[N+]1=C(c3ccc[nH]3)C=CC1=C2 [Aminopotentidine-2-NB590],1.00,1.00,
O=C(CCc1ccc2n1[B-](F)(F)[N+]1=C(c3ccc[nH]3)C=CC1=C2)NCc1ccc(C(=O)NCCOCCOCCNCC(O)COc2cccc3ccccc23)cc1 (centres unmarked) [Propranolol-3-NB590],,,"NanoBRET Fold Response (HTR7, 0.1μM): 1.03; NanoBRET Fold Response (HTR7, 1μM): 1.02"
O=C(CCc1ccc2n1[B-](F)(F)[N+]1=C(c3ccc[nH]3)C=CC1=C2)NCc1ccc(C(=O)NCCOCCC(=O)N[C@@H]2CC[C@@]3(O)[C@H]4Cc5ccc(O)c6c5[C@@]3(CCN4CC3CC3)[C@H]2O6)cc1 [Naltrexone-3-NB590],0.97,0.97,
COc1ccccc1N1CCN(CCCCN2C(=O)c3ccc(CNC(=O)CCOCCNC(=O)c4ccc(CNC(=O)CCc5ccc6n5[B-](F)(F)[N+]5=C(c7ccc[nH]7)C=CC5=C6)cc4)cc3C2=O)CC1 [NAN-190-3-NB590],1.21,1.05,
Cc1cc2c(s1)Nc1ccccc1N=C2N1CCN(CCCNC(=O)CCOCCOCCOCCOCCNC(=O)CCc2ccc3n2[B-](F)(F)[N+]2=C(c4ccc[nH]4)C=CC2=C3)CC1 [Olanzapine-a-2-NB590],0.99,1.16,
CCCn1c(=O)c2[nH]c(-c3ccc(OCC(=O)NCCNC(=O)CCOCCNC(=O)c4ccc(CNC(=O)CCc5ccc6n5[B-](F)(F)[N+]5=C(c7ccc[nH]7)C=CC5=C6)cc4)cc3)nc2n(CCC)c1=O [XAC-3-NB590],0.99,0.96,
N#CN/C(=N\CCNC(=O)c1ccc(N)cc1)NCCCOc1cccc(CN2CCCCC2)c1 [Aminopotentidine (unmodified)],,,"NanoBRET Fold Response (HTR7, other tracers/Aminopotentidine (unmodified), 0.1μM): 1.10; NanoBRET Fold Response (HTR7, other tracers/Aminopotentidine (unmodified), 1μM): 1.18"
CN(CCC=C1c2ccccc2CCc2ccccc21)C(=O)CCOCCOCCOCCOCCNC(=O)CCc1ccc2n1[B-](F)(F)[N+]1=C(c3ccc[nH]3)C=CC1=C2 [Amitriptyline-e-2-NB590],,,NanoBRET Fold Response (tracer at 1μM): 0.96
COc1ccc2c(n1)c(CCNC(C)=O)cn2CCNC(=O)CCc1ccc2n1[B-](F)(F)[N+]1=C(c3ccc[nH]3)C=CC1=C2 [Azamelatonin-1-NB590],,,NanoBRET Fold Response (0.1μM tracer): 0.99; NanoBRET Fold Response (1μM tracer): 0.99
